“Also recorded” adds a separate entry of the source. Each block holds one molecule with its values, some of them ahead of it.
What was measured:
MHC-I [1] = assay: MHC-I surface expression by flow cytometry; assay type: cell-based, murine; settings: A9 cells, 48 hours after treatment, flow cytometry
Method: A9 and TC-1 cell lines were trypsinized (0.05%, Gibco), washed twice with PBS (Gibco), and stained with allophycocyanin (APC) conjugated anti-mouse H-2K^b antibody (1:200, Biolegend) suspended in 150 μL of FACS buffer (PBS+2% FBS) for 20 minutes at 4° C. Cells were washed twice with PBS and re-suspended in 200 μL FACs buffer containing 1 μL of 7-aminoactinomycin (7AAD) viability stain (Biolegend). Flow cytometry was performed on the LSRII (BDBiosciences) and analysis was done using FlowJo (Flow cytometry Analysis Software).
The marine extract library was provided by Dr. Raymond J. Andersen (UBC). The marine invertebrate specimens were collected by SCUBA diving at a 40 metre depth from regions of high marine biodiversity in Papua New Guinea, Indonesia, Thailand, Sri Lanka, Dominica, Brazil, British Columbia, South Africa, and Norway 35. Previously curcuphenol was identified as the active component in one of the marine extracts showing induction of the APM, and since then two new generations of curcuphenol analogues were synthesized in the lab of Dr. Raymond Anderson. To evaluate the ability of these compounds to induce MHC-I surface expression, A9 cells were plated in 6 well plates at 10^5 cells/well and incubated for 24 hours at 37° C. in a 5% CO2 humidified atmosphere. After 24 hours the medium was removed and replaced with medium containing varying concentration of synthesized compounds (6.7 μg/mL, 20 μg/mL, 60 μg/mL). […] Following treatment, cells were incubated for 48 hours at 37° C. with 5% CO2 and humidified atmosphere. After incubation cells were subjected to flow cytometry.
Evaluation of MHC-I surface expression by flow cytometry. LMD:TAP-1 cells or A9 cells were plated in 6 well plates at a concentration of 10,000 cells per well in a 2 mL volume. The next day, cells were treated with the indicated concentrations of the compounds and incubated for 48 hours at 37° C. After incubation, the cells were trypsinized, washed and stained with APC-conjugated anti-mouse MHC-I (specifically anti-H-2K^b) antibody (Biolegend) and assessed by flow cytometry analysis.

Water solubility = assay type: physicochemical
[2] = literature; cited from earlier work
CD4+ and CD8+ T cells = assay: Analysis of tumour-infiltrating lymphocytes; assay type: in vivo, C57BL/6 mice; settings: after 12 days of treatment, flow cytometry
Method: (§1) The metastatic cell line, A9, was grown in the DMEM, as previously described without, the addition of antibiotics (penicillin and streptomycin, P/S). Once cells reached 75-80% confluence, they were trypsinized (0.05%, Gibco) and washed with HBSS (Hanks balanced salt solution). The cells were counted using the Bio-RAD TC20 automated cell counter and suspended to a concentration of […] in HBSS. Thirty-two synergistic female C57BL/6 mice, between the ages 6-8 weeks, were subcutaneously injected in the right flank with 50 μL containing 5×10^4 A9 metastatic tumour cells. Seven days following tumour inoculation i.p. treatment began daily for 12 days. Four treatment groups were studied, with eight animals per group. […] Body weights were measured three times a week and once tumours developed they were measured with calipers and tumour volume was calculated. Twelve days after starting treatment, mice were euthanized and tumours were collected and weighed. The tumours were then processed for flow cytometry analysis. Tumours were cut into small pieces and incubated RPMI (Gibco; with P/S 0.5%, Sodium pyruvate 1%, and L-glutamine 1%) and 3 mg/mL collagenase A (Roche) for one hour at 37° C. with shaking. Dissociated tumour cells were passed through a 100 μm filter and spun down at 15,000×RCF for 3 minutes. The pellet was washed once in FACs buffer (2% FBS in PBS) and spun down. The pellet was next suspended in red blood cell (RBC) lysis buffer and kept at room temperature for 5 minutes before being neutralized by the addition of 5 ml of PBS and spun down. If pellets were still found to contain RBCs this step was repeated. Once all RBCs were removed cells were suspended in FACs buffer to a concentration of 10^7 cells/mL. A total volume of 200 ul of cells from each tumour were added to a 96 well plate (Falcon) and incubated with Fc Blocker (Biolegend, 1:400) for twenty minutes at 4° C. The 96 well plate was spun down at 1,200 rmp for three minutes and supernatant was removed. The cells were then suspended in 150 ul of FACs buffer containing anti-CD8a (PE-Cy7, 1:200, eBioscience) and CD4 (APC, 1:200, Biolegend) antibodies and incubated at 4° Celsius for 20 minutes. The cells were washed twice and spun down using FACs buffer before being to flow cytometry tubes in a final volume of 200 ul of FACs buffer containing 7AAD (Biolegend 1:200). Flow cytometry was performed on LSRII (BDBiosciences) and analysis was done using FlowJo (Flow cytometry Analysis Software).
Analysis of tumour-infiltrating lymphocytes (TILs). Tumour-infiltrating T lymphocyte (either CD4^+ or CD8^+ T cells) infiltration was evaluated in tumours of mice following 2-week treatment with either compounds or controls. Tumours at the site of initial injection were removed from tumour-bearing mice. Following tumour dissociation in the presence of collagenase A (Roche) and erythrocyte lysis, the tumour cells were then washed and prepared as single-cell suspensions to detect TILs. Before staining with antibodies, the cells were incubated with Fc Blocker (Ebiosciences) for 20 minutes at 4° C. The tumour cells were then washed and stained with anti-CD4-APC (Biolegend), anti-CD8-PECy7 (eBiosciences) and 7-AAD (Biolegend) viability stain. Using flow cytometry, 7-AAD positive dead cells were gated out and the remaining population was assessed for CD4^+ and CD8^+ expression. Data were acquired using a BD™ LSR II flow cytometer (BD Biosciences) with FACSDiva™ software and analyzed with FlowJo software (Treestar).

[3] = system: A9 metastatic tumour cells; assay: In vivo tumour trial; parameters: species or system C57BL/6 mice; settings: daily i.p. for 12 days, P02-113 and P03-97-1 5.2 mg/kg, TSA 0.5 mg/kg
Method: as §1
Treatment of tumour-bearing mice with identified compounds. 5×10^4 A9 cells suspended in HBSS were subcutaneously (s.c.) transplanted into the right flank of 32 eight-week-old female C57BI/6 mice, as previously described 75. […] Body weight and tumours (once established) were measured every 2-4 days (more often as tumour size increased). Tumours were measured using calipers and volume was calculated as following: tumour volume=length×width^2. The tumour growth rate was assessed using methods previously described^28.

MHC-I [4] = settings: earlier work of the lab; cited from earlier work
TAP-1 = assay: High-throughput cell-based screen for TAP-1 induction (EGFP under the TAP-1 promoter); parameters: species or system murine; settings: LMD:TAP-1 cells, 10 ng/mL
Excerpt: Identification of marine natural product extracts with the ability to promote up-regulation of TAP-1 and […] expression in cancer cells: A high-throughput cell-based screen was used for identification of candidate compounds that increase the expression of TAP-1 in the LMD murine metastatic prostate cell line. To assess the induction of TAP-1 expression we used the LMD:TAP-1 cell line, which was transfected with a vector containing EGFP under the TAP-1 promoter^44. The Cellomics™ Arrayscan VTI automated fluorescence imager was used to determine the cell numbers based on DNA staining and the average GFP fluorescence intensity which correlates to the levels of TAP-1 induction (FIG. 24A). […]
Cell-based screening assay. […] Image acquisition, segmentation and analysis of micro plates were carried out using the Cellomics™ Arrayscan V^TI automated fluorescence imager (Thermo Fisher Scientific). […] The target activation algorithm was used to identify the nuclei based on Hoechst fluorescence intensity, apply a cytoplasmic mask and quantitate GFP fluorescence intensity within the cytoplasmic mask area. Average GFP fluorescence intensity (intensity per cell per pixel) and total number of cells per well were determined. […]

water solubility (Water solubility): water soluble
Molecule: Cc1ccc(CCCC(O)C(C)(C)O)c(O)c1 (stereo not shown) [P04-149]
induction of MHC-I expression at the cell surface (MHC-I [1]): increases MHC-I expression

Molecule: CC(/C=C/C(=O)NO)=C\[C@@H](C)C(=O)c1ccc(N(C)C)cc1 [TSA, Trichostatin A, reference compound]
detection after 24 hours [2]: no detection
half-life [2]: under ten
CD4+ T cell infiltration of tumours (CD4+ and CD8+ T cells): no significant infiltration or difference; also recorded: did not appear to increase
CD8+ T cell (CTL) infiltration of tumours (CD4+ and CD8+ T cells): greatest CD8+ infiltration; also recorded: increase in the CTL infiltration
tumour volume / tumour growth compared to vehicle control ([3]; A9 tumours): reduced
body weight [3]: remained stable; also recorded: no significant changes
restoring the MHC-I on A9 cells (MHC-I [4]): effective in restoring the MHC-I

B1: IFN-γ: known inducer of TAP-1 expression, positive control (protein, UniProt P01579 24-161, looked up)
Interferon gamma: QDPYVKEAENLKKYFNAGHSDVADNGTLFLGILKNWKEESDRKIMQSQIVSFYFKLFKNFKDDQSIQKSVETIKEDMNVKFFNSNKKKRDDFEKLTNYSVTDLNVQRKAIHELIQVMAELSPAAKTGKRKRSQMLFRG
TAP promoter-induced GFP expression (TAP-1): high level of GFP expression
